The values that follow are results of earlier work, collected in patent publication US6348193B1, “Method for inhibiting pathogenic fungi and bacteria in plants using Pseudomonas aureofaciens” (Board of Trustees of Michigan State University, priority 1999, dated 2002).

The test system of one data set is G. graminis var. tritici. As to conditions: in the soil atmosphere.
The subject of a further data set is Magnaporthe poae. As to conditions: in vivo.

`C=C` [Ethylene, ethylene]: in the data set with G. graminis var. tritici, the “Concentration inhibitory to G. graminis var. tritici” value is “less than 5 parts-per-million”.

In the case of faeriefungin, the “Management of summer patch disease of turfgrass” value in the data set on Magnaporthe poae is listed as “equal to that of the chemical fungicide fenarimol”.
